What was measured:
human CD73 = molecular target: T1, human CD73 (Homo sapiens, UniProt P21589); experiment: Inhibitor activity against CD73 in cell based assay (CD73 expressing CHO-K1 cells); conditions: CHO-K1 cells expressing human CD73, 150 μM AMP, 4 hours of incubation; read-out: CHO-K1 CELL VARIANT: CD73 IC50
T1 construct: expressed in transfected cells
T1 sequence (P21589 27-549): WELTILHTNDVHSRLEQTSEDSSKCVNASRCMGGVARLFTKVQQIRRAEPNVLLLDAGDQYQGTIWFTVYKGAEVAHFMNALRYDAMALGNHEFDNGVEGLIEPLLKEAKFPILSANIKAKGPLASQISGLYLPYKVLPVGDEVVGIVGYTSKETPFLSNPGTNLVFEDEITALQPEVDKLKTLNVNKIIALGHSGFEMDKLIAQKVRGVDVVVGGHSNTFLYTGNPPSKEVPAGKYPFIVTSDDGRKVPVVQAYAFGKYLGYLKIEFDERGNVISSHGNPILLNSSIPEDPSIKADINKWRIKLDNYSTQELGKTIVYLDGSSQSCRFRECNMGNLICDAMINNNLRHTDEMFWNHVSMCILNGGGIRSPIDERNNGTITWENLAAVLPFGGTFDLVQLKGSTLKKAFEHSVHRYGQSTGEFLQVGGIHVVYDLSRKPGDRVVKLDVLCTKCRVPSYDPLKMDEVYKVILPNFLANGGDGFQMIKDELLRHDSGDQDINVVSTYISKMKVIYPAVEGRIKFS
Outline: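 Residual supernatant AMP was quantified via CellTiter-Glo luminescence (1 μM ATP added, 30 min, room temperature) after a 4 h exposure of human CD73-expressing CHO-K1 cells to 150 μM AMP plus compound, top final 10 μM, 8 points. IC50 came from nonlinear regression of percent inhibition.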

[1] = molecular target: T2, Human CD73 (amino acid residues 27-549) (Homo sapiens, UniProt P21589); experiment: CD73 enzymatic assay (luciferase-based indirect assay, CellTiter-Glo); type: biochemical; conditions: 0.4 nM CD73, 150 μM AMP, 1 hour at room temperature
T2 construct: Human CD73 (amino acid residues 27-549); His tag (N); made in house; host or cells: E. coli
T2 sequence (P21589 27-549): T1 sequence (P21589 27-549)
Outline: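 Residual AMP inhibits luciferase, so luminescence reports CD73 turnover; read with CellTiter-Glo 2.0 plus 1 μM final ATP, 30 min. Reaction used 0.4 nM N-His CD73 (27-549, E. coli), 150 μM AMP, HEPES pH 7.4 with Tween 20, 1 h at room temperature. IC50 fitted by nonlinear regression.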

Row | SMILES | IC50 (human CD73) [µM] | IC50 [1] [µM]
1 | N#CC1(NC(=O)O[C@@H]2CCN(c3cn[nH]c(=O)c3Cl)C2)CCCC1 [P-0361, (R)-1-(5-chloro-6-oxo-1,6-dihydropyridazin-4-yl)pyrrolidin-3-yl (1-cyanocyclopentyl)carbamate] | 0.001 to 10 | 0.001 to 10
2 | O=C(N[C@H]1CC[C@H](NC(=O)c2ccccc2)C1)O[C@@H]1CCN(c2cn[nH]c(=O)c2Cl)C1 [P-0364, (R)-1-(5-chloro-6-oxo-1,6-dihydropyridazin-4-yl)pyrrolidin-3-yl ((1S,3S)-3-benzamidocyclopentyl) carbamate] | 0.001 to 10 | 0.001 to 10
3 | O=C(N[C@H]1C[C@@](O)(C(F)(F)F)C1)O[C@@H]1CCN(c2cn[nH]c(=O)c2Cl)C1 [P-0368, (R)-1-(5-chloro-6-oxo-1,6-dihydropyridazin-4-yl)pyrrolidin-3-yl ((1r,3r)-3-hydroxy-3-(trifluoromethyl)cyclobutyl)carbamate] | 0.001 to 10 | 0.001 to 10
4 | O=C(NC1CCN(C(=O)c2ccccc2)CC1)O[C@@H]1CCN(c2cn[nH]c(=O)c2Cl)C1 [P-0369, (R)-1-(5-chloro-6-oxo-1,6-dihydropyridazin-4-yl)pyrrolidin-3-yl (1-benzoylpiperidin-4-yl)carbamate] | 0.001 to 10 | 0.001 to 10
5 | O=C(NC1CCN(C(=O)c2ccno2)CC1)O[C@@H]1CCN(c2cn[nH]c(=O)c2Cl)C1 [P-0371, (R)-1-(5-chloro-6-oxo-1,6-dihydropyridazin-4-yl)pyrrolidin-3-yl (1-(isoxazole-5-carbonyl)piperidin-4-yl)carbamate] | 0.001 to 10 | 0.001 to 10
6 | CC(C)C(=O)N1CCC(NC(=O)O[C@@H]2CCN(c3cn[nH]c(=O)c3Cl)C2)CC1 [P-0372, (R)-1-(5-chloro-6-oxo-1,6-dihydropyridazin-4-yl)pyrrolidin-3-yl (1-isobutyrylpiperidin-4-yl)carbamate] | 0.001 to 10 | 0.001 to 10
7 | O=C(NC1CCN(C(=O)Cc2ccccc2)CC1)O[C@@H]1CCN(c2cn[nH]c(=O)c2Cl)C1 [P-0374, (R)-1-(5-chloro-6-oxo-1,6-dihydropyridazin-4-yl)pyrrolidin-3-yl (1-(2-phenylacetyl)piperidin-4-yl)carbamate] | 0.001 to 10 | 0.001 to 10
8 | CCC(=O)N1CCC(NC(=O)O[C@@H]2CCN(c3cn[nH]c(=O)c3Cl)C2)CC1 [P-0376, (R)-1-(5-chloro-6-oxo-1,6-dihydropyridazin-4-yl)pyrrolidin-3-yl (1-propionylpiperidin-4-yl)carbamate] | 0.001 to 10 | 0.001 to 10
9 | O=C(NC1CCN(C(=O)C2CCCC2)CC1)O[C@@H]1CCN(c2cn[nH]c(=O)c2Cl)C1 [P-0377, (R)-1-(5-chloro-6-oxo-1,6-dihydropyridazin-4-yl)pyrrolidin-3-yl (1-(cyclopentanecarbonyl)piperidin-4-yl)carbamate] | 0.001 to 10 | 0.001 to 10
10 | CCc1c(N2CC[C@@H](OC(=O)NC3CCC(F)(F)CC3)C2)cn[nH]c1=O [P-0378, (R)-1-(5-ethyl-6-oxo-1,6-dihydropyridazin-4-yl)pyrrolidin-3-yl (4,4-difluorocyclohexyl)carbamate] | 10 to 100 | 0.001 to 10
11 | N#C[C@H]1CCC[C@H]1NC(=O)O[C@@H]1CCN(c2cn[nH]c(=O)c2Cl)C1 [P-0379, (R)-1-(5-chloro-6-oxo-1,6-dihydropyridazin-4-yl)pyrrolidin-3-yl ((1R,2S)-2-cyanocyclopentyl)carbamate] | 0.001 to 10 | 0.001 to 10
12 | N#C[C@@H]1CCC[C@H]1NC(=O)O[C@@H]1CCN(c2cn[nH]c(=O)c2Cl)C1 [P-0380, (R)-1-(5-chloro-6-oxo-1,6-dihydropyridazin-4-yl)pyrrolidin-3-yl ((1R,2R)-2-cyanocyclopentyl)carbamate] | 0.001 to 10 | 0.001 to 10
13 | COC(=O)C12CCC(NC(=O)O[C@@H]3CCN(c4cn[nH]c(=O)c4Cl)C3)(CC1)C2 [P-0382, methyl (R)-4-((((1-(5-chloro-6-oxo-1,6-dihydropyridazin-4-yl)pyrrolidin-3-yl)oxy)carbonyl)amino)bicyclo[2.2.1]heptane-1-carboxylate] | 0.001 to 10 | 0.001 to 10
14 | O=C(N[C@H]1CCC[C@H]1C(F)(F)F)O[C@@H]1CCN(c2cn[nH]c(=O)c2Cl)C1 [P-0383, (R)-1-(5-chloro-6-oxo-1,6-dihydropyridazin-4-yl)pyrrolidin-3-yl ((1S,2R)-2-(trifluoromethyl)cyclopentyl) carbamate] | 0.001 to 10 | 0.001 to 10
15 | O=C(N[C@@H]1CCC[C@H]1O)O[C@@H]1CCN(c2cn[nH]c(=O)c2Cl)C1 [P-0384, (R)-1-(5-chloro-6-oxo-1,6-dihydropyridazin-4-yl)pyrrolidin-3-yl ((1R,2R)-2-hydroxycyclopentyl)carbamate] | 0.001 to 10 | 0.001 to 10

Now from value to compound:

Row | IC50 (human CD73) [µM] | IC50 [1] [µM] | SMILES
16 | 0.001 to 10 | 0.001 to 10 | O=C(NC1(C(F)(F)F)CCCC1)O[C@@H]1CCN(c2cn[nH]c(=O)c2Cl)C1 [P-0360, (R)-1-(5-chloro-6-oxo-1,6-dihydropyridazin-4-yl)pyrrolidin-3-yl (1-(trifluoromethyl)cyclopentyl) carbamate]
17 | 0.001 to 10 | 0.001 to 10 | O=C(NC1(c2ccc(F)cc2)CC1)O[C@@H]1CCN(c2cn[nH]c(=O)c2Cl)C1 [P-0362, (R)-1-(5-chloro-6-oxo-1,6-dihydropyridazin-4-yl)pyrrolidin-3-yl (1-(4-fluorophenyl)cyclopropyl) carbamate]
18 | 0.001 to 10 | 0.001 to 10 | C=Cc1c(N2CC[C@@H](OC(=O)NC3CCCC3)C2)cn[nH]c1=O [P-0363, (R)-1-(6-oxo-5-vinyl-1,6-dihydropyridazin-4-yl)pyrrolidin-3-yl cyclopentylcarbamate]
19 | 0.001 to 10 | 0.001 to 10 | O=C(N[C@H]1CC[C@H](NS(=O)(=O)c2ccccc2F)C1)O[C@@H]1CCN(c2cn[nH]c(=O)c2Cl)C1 [P-0365, (R)-1-(5-chloro-6-oxo-1,6-dihydropyridazin-4-yl)pyrrolidin-3-yl ((1S,3S)-3-((2-fluorophenyl)sulfonamido)cyclopentyl)carbamate]
20 | 0.001 to 10 | 0.001 to 10 | COc1ccc(S(=O)(=O)C[C@H]2CC[C@H](NC(=O)O[C@@H]3CCN(c4cn[nH]c(=O)c4Cl)C3)CC2)cc1 [P-0366, (R)-1-(5-chloro-6-oxo-1,6-dihydropyridazin-4-yl)pyrrolidin-3-yl ((1r,4R)-4-(((4-methoxyphenyl)sulfonyl)methyl)cyclohexyl)carbamate]
21 | 0.001 to 10 | 0.001 to 10 | O=C(N[C@@H]1CC[C@H]1C(F)(F)F)O[C@@H]1CCN(c2cn[nH]c(=O)c2Cl)C1 [P-0367, (R)-1-(5-chloro-6-oxo-1,6-dihydropyridazin-4-yl)pyrrolidin-3-yl ((1R,2R)-2-(trifluoromethyl)cyclobutyl) carbamate]
22 | 0.001 to 10 | 0.001 to 10 | O=C(NC1CCN(C(=O)C2CCC2)CC1)O[C@@H]1CCN(c2cn[nH]c(=O)c2Cl)C1 [P-0370, (R)-1-(5-chloro-6-oxo-1,6-dihydropyridazin-4-yl)pyrrolidin-3-yl (1-(cyclobutanecarbonyl)piperidin-4-yl)carbamate]
23 | 0.001 to 10 | 0.001 to 10 | CC(C)(C)C(=O)N1CCC(NC(=O)O[C@@H]2CCN(c3cn[nH]c(=O)c3Cl)C2)CC1 [P-0373, (R)-1-(5-chloro-6-oxo-1,6-dihydropyridazin-4-yl)pyrrolidin-3-yl (1-pivaloylpiperidin-4-yl)carbamate]
24 | 0.001 to 10 | 0.001 to 10 | CC(C)CC(=O)N1CCC(NC(=O)O[C@@H]2CCN(c3cn[nH]c(=O)c3Cl)C2)CC1 [P-0375, (R)-1-(5-chloro-6-oxo-1,6-dihydropyridazin-4-yl)pyrrolidin-3-yl (1-(3-methylbutanoyl)piperidin-4-yl)carbamate]
25 | 0.001 to 10 | 0.001 to 10 | CC1CCCC1NC(=O)O[C@@H]1CCN(c2cn[nH]c(=O)c2Cl)C1 (stereo partly drawn) [P-0381, (R)-1-(5-chloro-6-oxo-1,6-dihydropyridazin-4-yl)pyrrolidin-3-yl (2-methylcyclopentyl)carbamate]
26 | 0.001 to 10 | 0.001 to 10 | O=C(NC1CC2CC2C1)O[C@@H]1CCN(c2cn[nH]c(=O)c2Cl)C1 (stereo partly drawn) [P-0385, (R)-1-(5-chloro-6-oxo-1,6-dihydropyridazin-4-yl)pyrrolidin-3-yl bicyclo[3.1.0]hexan-3-ylcarbamate]
27 | 0.001 to 10 | 0.001 to 10 | O=C(NC1CCCC1(F)F)O[C@@H]1CCN(c2cn[nH]c(=O)c2Cl)C1 (stereo partly drawn) [P-0386, (R)-1-(5-chloro-6-oxo-1,6-dihydropyridazin-4-yl)pyrrolidin-3-yl (2,2-difluorocyclopentyl)carbamate]
